Reference: ChEMBL document CHEMBL1138169, “Oxadiazole derivatives as a novel class of antimitotic agents: Synthesis, inhibition of tubulin polymerization, and activity in tumor cell lines” (Bioorg Med Chem Lett, 2006)

How the values were obtained:
[1] = Cmax in mouse at 60 mg/kg, ip; type: ADME, organism-based; set-up: dose 60 mg/kg, route intraperitoneal; conditions: in vivo
[2] = Half life in mouse at 60 mg/kg, ip; type: ADME, organism-based; set-up: dose 60 mg/kg, route intraperitoneal; conditions: in vivo
[3] = AUC (0-4 h) in mouse at 60 mg/kg, ip; type: ADME, organism-based; set-up: time < 4 hr, dose 60 mg/kg, route intraperitoneal; conditions: plasma
[4] = tested on: A-431; assay: Cell cycle arrest in A431 cells by accumulation at G2/M phase; type: functional, cell-based; conditions: Homo sapiens
[5] = target: Tubulin; assay: Displacement of [3H]colchicine from tubulin at 65 nM; type: protein-complex assay, Homo sapiens
[6] = target: Tubulin; assay: Inhibition of tubulin polymerization; type: functional, Homo sapiens
[7] = tested on: NCI/ADR-RES; assay: Cell cycle arrest in NCI/ADR (MDR) cells by accumulation at G2/M phase; type: functional, cell-based; conditions: Homo sapiens
[8] = Half life in mouse at 60 mg/kg, po; type: ADME, organism-based; set-up: dose 60 mg/kg, route oral; conditions: in vivo
[9] = Cmax in mouse at 60 mg/kg, po; type: ADME, organism-based; set-up: dose 60 mg/kg, route oral; conditions: in vivo
[10] = AUC (0-4 h) in mouse at 60 mg/kg, po; type: ADME, organism-based; set-up: time < 4 hr, dose 60 mg/kg, route oral; conditions: plasma

| Compound | EC50 [4] [nM] | IC50 [6] [nM] | also measured |
| --- | --- | --- | --- |
| COc1cc(Nc2ncccc2-c2n[nH]c(Nc3ccc4c(c3)OCO4)n2)cc(OC)c1 | – | – | Cmax [1]: 7.3 µM; half-life [2]: 0.62 h; AUC(0-t) at 4 h [3]: 13.6 µM·h |
| c1cncc(CNc2ncccc2-c2nnc(Nc3ccc4c(c3)OCCO4)o2)c1 | 13 | 700 | Cmax [1]: 6.5 µM; IC50 [5]: 30 nM; EC50 [7]: 19 nM; half-life [2]: 0.8 h; AUC(0-t) at 4 h [3]: 6.7 µM·h |
| c1ccc(CNc2ncncc2-c2nnc(Nc3ccc4c(c3)OCCO4)o2)nc1 | – | > 30000 | – |
| c1cnc(NCc2ccc3c(c2)OCO3)c(-c2nnc(Nc3ccc4c(c3)OCCO4)o2)c1 | 18 | 500 | – |
| CS(=O)(=O)Nc1ccc(CNc2ncccc2-c2nnc(Nc3ccc4c(c3)OCO4)o2)cc1 | 71 | 3800 | – |
| Fc1ccc(CNc2ncccc2-c2nnc(Nc3ccc4c(c3)OCCO4)o2)cc1F | 15 | 700 | – |
| Fc1ccc(CNc2ncccc2-c2nnc(Nc3ccc4c(c3)OCO4)o2)cc1F | 51 | 2200 | – |
| c1ccc(CNc2ccccc2-c2nnc(Nc3ccc4c(c3)OCCO4)o2)nc1 | 14 | 1200 | Cmax [1]: 6.4 µM; IC50 [5]: 390 nM; EC50 [7]: 37 nM; half-life [2]: 1.5 h; AUC(0-t) at 4 h [3]: 17.2 µM·h |
| Cc1ccc(-c2nnc(Nc3ccc4c(c3)OCCO4)o2)c(NCc2ccccn2)n1 | 99 | 2400 | – |
| CS(=O)(=O)Nc1ccc(CNc2ncccc2-c2nnc(Nc3ccc4c(c3)OCCO4)o2)cc1 | 23 | 2000 | – |
| CN(c1ccc2c(c1)OCCO2)c1nnc(-c2cccnc2NCc2ccccn2)o1 | – | > 30000 | – |
| c1ccc(CNc2ccccc2-c2cnc(Nc3ccc4c(c3)OCCO4)o2)nc1 | 35 | 1400 | Cmax [1]: 4.6 µM; IC50 [5]: 10 nM; EC50 [7]: 103 nM; half-life [2]: 2.43 h; AUC(0-t) at 4 h [3]: 14.4 µM·h |
| c1cnc(NCc2ccncc2)c(-c2nnc(Nc3ccc4c(c3)OCO4)o2)c1 | 20 | 1000 | Cmax [1]: 15.1 µM; IC50 [5]: 30 nM; EC50 [7]: 7.8 nM; half-life [2]: 2.6 h; AUC(0-t) at 4 h [3]: 52.6 µM·h |
| c1cnc(NCc2ccncc2)c(-c2nnc(Nc3ccc4c(c3)OCCO4)o2)c1 | 18 | 29900 | – |
| Fc1ccc(CNc2ncccc2-c2nnc(Nc3ccc4c(c3)OCCO4)o2)cc1 | 60 | 5000 | – |
| c1ccc(CNc2ccccc2-c2csc(Nc3ccc4c(c3)OCCO4)n2)nc1 | – | > 30000 | – |
| c1ccc(CNc2ccncc2-c2nnc(Nc3ccc4c(c3)OCCO4)o2)nc1 | – | > 30000 | – |
| c1coc(CNc2ncccc2-c2nnc(Nc3ccc4c(c3)OCCO4)o2)c1 | 45 | 2000 | – |
| c1cnc(NCc2ccc3c(c2)OCCO3)c(-c2nnc(Nc3ccc4c(c3)OCCO4)o2)c1 | 57 | 1800 | – |

| Compound | EC50 [4] [nM] | IC50 [6] [nM] | also measured |
| --- | --- | --- | --- |
| c1ccc(CNc2ncccc2-c2nnc(Nc3ccc4c(c3)OCCO4)o2)nc1 | 16 | 1900 | Cmax [1]: 12.5 µM; half-life [8]: 2.2 h; Cmax [9]: 3.8 µM; IC50 [5]: 190 nM; AUC(0-t) at 4 h [10]: 8.8 µM·h; EC50 [7]: 27 nM; half-life [2]: 2.7 h; AUC(0-t) at 4 h [3]: 31.2 µM·h |
| c1ccc(CNc2nccnc2-c2nnc(Nc3ccc4c(c3)OCCO4)o2)nc1 | 75 | 2000 | – |
| c1ccc(CNc2ccsc2-c2nnc(Nc3ccc4c(c3)OCCO4)o2)nc1 | 22 | 4400 | Cmax [1]: 59.2 µM; IC50 [5]: 75 nM; EC50 [7]: 46 nM; half-life [2]: 0.75 h; AUC(0-t) at 4 h [3]: 102 µM·h |
| c1ccc(CNc2ncccc2-c2nnc(Nc3ccc4c(c3)OCO4)o2)nc1 | 49 | 1700 | Cmax [1]: 4.9 µM; IC50 [5]: 30 nM; EC50 [7]: 256 nM; half-life [2]: 4.1 h; AUC(0-t) at 4 h [3]: 21.5 µM·h |
| c1ccc(CNc2ccccc2-c2c[nH]c(Nc3ccc4c(c3)OCCO4)n2)nc1 | – | > 30000 | – |
| COc1ccc(CNc2ncccc2-c2nnc(Nc3ccc4c(c3)OCCO4)o2)cc1 | 23 | 1600 | – |
| c1cnc(NCc2cnccn2)c(-c2nnc(Nc3ccc4c(c3)OCCO4)o2)c1 | 31 | 2200 | – |
| Fc1cnc(NCc2ccccn2)c(-c2nnc(Nc3ccc4c(c3)OCCO4)o2)c1 | 82 | 3400 | – |
| c1cnc(NCc2cnccn2)c(-c2nnc(Nc3ccc4c(c3)OCO4)o2)c1 | 210 | 9600 | – |
| c1cncc(CNc2ncccc2-c2nnc(Nc3ccc4c(c3)OCO4)o2)c1 | 31 | 8800 | – |
| c1coc(CNc2ncccc2-c2nnc(Nc3ccc4c(c3)OCO4)o2)c1 | 130 | 4900 | – |
| FC1(F)Oc2ccc(Nc3nnc(-c4cccnc4NCc4ccccn4)o3)cc2O1 | 780 | 13300 | – |
| FC(F)(F)c1ccc(-c2nnc(Nc3ccc4c(c3)OCCO4)o2)c(NCc2ccccn2)n1 | – | > 30000 | – |
| c1cnc(NCC2CCCO2)c(-c2nnc(Nc3ccc4c(c3)OCCO4)o2)c1 (centres undefined) | 160 | 1700 | Cmax [1]: 16.4 µM; IC50 [5]: 390 nM; EC50 [7]: 128 nM; half-life [2]: 0.78 h; AUC(0-t) at 4 h [3]: 26.3 µM·h |
| c1ccc(COc2ncccc2-c2nnc(Nc3ccc4c(c3)OCCO4)o2)nc1 | 260 | 18100 | – |
| COc1ccc(Nc2nnc(-c3cccnc3NCc3ccccn3)o2)cc1 | 20 | 1500 | – |
| c1cnc(NCC2CCCO2)c(-c2nnc(Nc3ccc4c(c3)OCO4)o2)c1 (centres undefined) | 330 | 15500 | – |
| COc1ccc(/C=C\c2cc(OC)c(OC)c(OC)c2)cc1O [COMBRETASTATIN A4] | 3.5 | – | EC50 [7]: 1.5 nM |
| CC(=O)O[C@H]1C(=O)[C@@]2(C)[C@H]([C@H](OC(=O)c3ccccc3)[C@]3(O)C[C@H](OC(=O)[C@H](O)[C@@H](NC(=O)c4ccccc4)c4ccccc4)C(C)=C1C3(C)C)[C@]1(OC(C)=O)CO[C@@H]1C[C@@H]2O [PACLITAXEL] | 9 | – | EC50 [7]: > 10000 nM |
